Experimental data published in the supplement of paper PMC11451515.

System: P12-Ichikawa
Experiment: cell viability relative to DMSO control; higher = less cytotoxic
Conditions: 48 h
Procedure, shortened: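 Viability, reported as a per-plate percentage of DMSO wells with cell-free wells as background, came from CellTiter-Glo One luminescence. Reading took place after 48 h at 37°C. Before that, NOMO1 or SEM (500 cells/well) or P12-Ichikawa (1000 cells/well) leukemia cells, adapted for at least four passages in each medium, were seeded in 1536-well plates (5 μl) and pin-dosed with library compounds in DMSO, 47 μM to 0.79 nM over 11 threefold points.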

[1] = HPLM + 10% dialyzed FBS, 0.000781 µM
[2] = HPLM + 10% dialyzed FBS, 0.00234 µM
[3] = HPLM + 10% dialyzed FBS, 0.00702 µM
[4] = HPLM + 10% dialyzed FBS, 0.0211 µM
[5] = HPLM + 10% dialyzed FBS, 0.0632 µM
[6] = HPLM + 10% dialyzed FBS, 0.19 µM
[7] = HPLM + 10% dialyzed FBS, 0.569 µM
[8] = HPLM + 10% dialyzed FBS, 1.71 µM
[9] = HPLM + 10% dialyzed FBS, 5.12 µM
[10] = HPLM + 10% dialyzed FBS, 15.4 µM
[11] = HPLM + 10% dialyzed FBS, 46.1 µM
[12] = RPMI 5 mM glucose + 10% FBS, 0.000781 µM
[13] = RPMI 5 mM glucose + 10% FBS, 0.00234 µM
[14] = RPMI 5 mM glucose + 10% FBS, 0.00702 µM
[15] = RPMI 5 mM glucose + 10% FBS, 0.0211 µM
[16] = RPMI 5 mM glucose + 10% FBS, 0.0632 µM
[17] = RPMI 5 mM glucose + 10% FBS, 0.19 µM
[18] = RPMI 5 mM glucose + 10% FBS, 0.569 µM
[19] = RPMI 5 mM glucose + 10% FBS, 1.71 µM
[20] = RPMI 5 mM glucose + 10% FBS, 5.12 µM
[21] = RPMI 5 mM glucose + 10% FBS, 15.4 µM
[22] = RPMI 5 mM glucose + 10% FBS, 46.1 µM
[23] = RPMI 5 mM glucose + 10% dialyzed FBS, 0.000781 µM
[24] = RPMI 5 mM glucose + 10% dialyzed FBS, 0.00234 µM
[25] = RPMI 5 mM glucose + 10% dialyzed FBS, 0.00702 µM
[26] = RPMI 5 mM glucose + 10% dialyzed FBS, 0.0211 µM
[27] = RPMI 5 mM glucose + 10% dialyzed FBS, 0.0632 µM
[28] = RPMI 5 mM glucose + 10% dialyzed FBS, 0.19 µM
[29] = RPMI 5 mM glucose + 10% dialyzed FBS, 0.569 µM
[30] = RPMI 5 mM glucose + 10% dialyzed FBS, 1.71 µM
[31] = RPMI 5 mM glucose + 10% dialyzed FBS, 5.12 µM
[32] = RPMI 5 mM glucose + 10% dialyzed FBS, 15.4 µM
[33] = RPMI 5 mM glucose + 10% dialyzed FBS, 46.1 µM

SMILES	cell viability [1]	cell viability [2]	cell viability [3]	cell viability [4]	cell viability [5]	cell viability [6]	cell viability [7]	cell viability [8]	cell viability [9]	cell viability [10]	cell viability [11]	cell viability [12]	cell viability [13]	cell viability [14]	cell viability [15]	cell viability [16]	cell viability [17]	cell viability [18]	cell viability [19]	cell viability [20]	cell viability [21]	cell viability [22]	cell viability [23]	cell viability [24]	cell viability [25]	cell viability [26]	cell viability [27]	cell viability [28]	cell viability [29]	cell viability [30]	cell viability [31]	cell viability [32]	cell viability [33]
Cc1ccccc1C(=O)c1ccc(Nc2ccc(Br)cc2N)cc1Cl	117%	122%	119%	104%	114%	118%	114%	114%	105%	98.6%	51.5%	117%	122%	121%	110%	119%	108%	117%	113%	111%	108%	53.7%	117%	121%	127%	119%	122%	118%	117%	111%	105%	89%	35.5%
CNCC(O)c1ccc(O)cc1 (stereo not given)	103%	106%	113%	113%	124%	122%	118%	118%	120%	119%	120%	99.8%	116%	114%	121%	124%	127%	122%	129%	123%	131%	107%	99.4%	110%	115%	119%	114%	113%	118%	113%	123%	121%	114%
CN1CCN(C2=Nc3cc(Cl)ccc3Nc3ccccc32)CC1	102%	105%	108%	108%	91.6%	115%	116%	116%	106%	104%	94.4%	91.6%	120%	115%	120%	95.8%	125%	107%	115%	124%	108%	108%	100%	103%	103%	102%	96.7%	112%	109%	116%	105%	108%	93.2%
CC(C)CNc1ccnc(NCc2csc(-c3ccccc3)n2)n1	110%	123%	128%	132%	130%	132%	127%	115%	101%	96.3%	63.6%	–	–	–	–	–	–	–	–	–	–	–	–	–	–	–	–	–	–	–	–	–	–
